Results: paper PMC9250534, “Synthesis and direct assay of large macrocycle diversities by combinatorial late-stage modification at picomole scale” (Nature Communications, 2022)

Molecular target: MDM2 (Homo sapiens, UniProt Q00987)
Assay: MDM2 binding screen of Libraries 3 and 4: displacement of fluorescent probe F-M8 at 750 nM macrocycle
Procedure, shortened: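 Competition with nutlin-3a was run using the fluorescein conjugate. Library members came from scaffolds reacted 6 h at room temperature with carboxylic acids (20 equiv.), HBTU and DABCO in DMSO. Quenching was overnight in Tris-Cl pH 7.4 buffer with 0.01% Tween20.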

[1] = Panel b, Library 3: 63 scaffolds combinatorially acylated with 15 carboxylic acids at 30 picomole scale, displacement of fluorescent peptide probe, macrocycle 750 nM
[2] = Panel c, Library 4: best nine scaffolds and 15 additional carboxylic acids, displacement of fluorescent probe

MDM2, sequence (Q00987 whole entry): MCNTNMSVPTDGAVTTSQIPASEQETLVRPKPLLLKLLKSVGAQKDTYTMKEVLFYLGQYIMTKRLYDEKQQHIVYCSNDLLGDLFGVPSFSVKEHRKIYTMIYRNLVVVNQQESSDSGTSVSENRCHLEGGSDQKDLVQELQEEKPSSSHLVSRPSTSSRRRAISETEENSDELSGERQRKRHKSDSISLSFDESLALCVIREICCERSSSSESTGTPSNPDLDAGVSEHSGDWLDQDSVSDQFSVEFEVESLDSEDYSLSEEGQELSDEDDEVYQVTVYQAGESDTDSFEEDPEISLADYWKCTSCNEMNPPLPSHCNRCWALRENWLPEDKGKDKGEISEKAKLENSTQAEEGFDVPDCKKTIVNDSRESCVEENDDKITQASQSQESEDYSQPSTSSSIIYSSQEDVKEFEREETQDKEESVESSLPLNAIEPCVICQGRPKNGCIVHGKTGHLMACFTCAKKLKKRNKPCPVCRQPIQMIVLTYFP

SMILES	fraction of fluorescent probe displaced [1]	fraction of fluorescent probe displaced [2]
O=C1CN(CCNC(=O)C2COc3ccccc3O2)C(=O)[C@@H]2CN(CCO2)C(=O)CCSSCCNC(=O)[C@H](Cc2c[nH]c3ccccc23)N1 (stereo partly drawn) [X-Cop-N-Aeg-Trp + Acid 115]	-0.012	–
O=C(/C=C/c1ccc(OCc2ccccc2)cc1)NCCN1CC(=O)N[C@@H](Cc2ccc3ccccc3c2)C(=O)NCCSSCCC(=O)N2CCC[C@@H](C2)C1=O [X-Nip-N-Aeg-2-Nal + Acid 110]	0.035	–
O=C(/C=C/c1ccc2ccccc2c1)NCCN1CC(=O)N[C@@H](Cc2c[nH]c3cc(Cl)ccc23)C(=O)NCCSSCCC(=O)N2CCC[C@@H](C2)C1=O [X-Nip-N-Aeg-Cl-Trp + Acid 112]	0.00133	–
O=C(/C=C/c1ccc(F)cc1)NC[C@@H]1NC(=O)[C@H]2CCCN(C2)C(=O)CCSSCCNC(=O)[C@H](Cc2c[nH]c3cc(Cl)ccc23)NC1=O [X-Nip-Dap-Cl-Trp + Acid 116]	–	0.289
O=C(/C=C/c1ccc(OCc2ccccc2)cc1)NC[C@H]1NC(=O)C2(CC2)CNC(=O)CCSSCCNC(=O)[C@H](Cc2c[nH]c3cc(Cl)ccc23)NC1=O [X-Amcp-D-Dap-Cl-Trp + Acid 110]	0.008	–
O=C1CCSSCCNC(=O)[C@H](Cc2ccc3ccccc3c2)NC(=O)[C@H](CNC(=O)c2ccc3ccccc3c2)NC(=O)C2(CC2)CN1 [X-Amcp-Dap-2-Nal + Acid 107]	0.031	–
O=C(/C=C/c1ccc(Cl)cc1)NCCN1CC(=O)N[C@@H](Cc2cccc3ccccc23)C(=O)NCCSSCCC(=O)NCC2(CC2)C1=O [X-Amcp-N-Aeg-1-NaI + Acid 108]	0.035	–
O=C(/C=C/c1ccc(Cl)cc1)NCCN1CC(=O)N[C@@H](Cc2cccc3ccccc23)C(=O)NCCSSCCC(=O)N2CCC[C@@H](C2)C1=O [X-Nip-N-Aeg-1-NaI + Acid 108]	0.021	–
Cn1cc(C[C@@H]2NC(=O)CN(CCNC(=O)CCS(=O)(=O)c3ccccc3)C(=O)[C@H]3CCCN(C3)C(=O)CCSSCCNC2=O)c2ccccc21 [X-Nip-N-Aeg-Me-Trp + Acid 114]	0.00133	–
O=C(/C=C/c1ccc(Cl)cc1)NC[C@@H]1NC(=O)[C@H]2CCCN(C2)C(=O)CCSSCCNC(=O)[C@H](Cc2c[nH]c3cc(Cl)ccc23)NC1=O [X-Nip-Dap-Cl-Trp + Acid 108]	0.108	–
CC(C)c1ccc(/C=C/C(=O)NC[C@@H]2NC(=O)[C@H]3CCCN(C3)C(=O)CCSSCCNC(=O)[C@H](Cc3ccc4ccccc4c3)NC2=O)cc1 [X-Nip-Dap-2-Nal + Acid 127]	–	-0.021
O=C(NC[C@@H]1NC(=O)[C@H]2CCCN(C2)C(=O)CCSSCCNC(=O)[C@H](Cc2ccc3ccccc3c2)NC1=O)c1ccc(Cl)s1 [X-Nip-Dap-2-Nal + Acid 14]	0.015	–
Cn1cc(C[C@@H]2NC(=O)CN(CCNC(=O)c3cccc(Oc4ccccc4)c3)C(=O)[C@@H]3CN(CCO3)C(=O)CCSSCCNC2=O)c2ccccc21 [X-Cop-N-Aeg-Me-Trp + Acid 111]	-0.00533	–
Cn1cc(C[C@@H]2NC(=O)CN(CCNC(=O)/C=C/c3ccc4ccccc4c3)C(=O)C3(CC3)CNC(=O)CCSSCCNC2=O)c2ccccc21 [X-Amcp-N-Aeg-Me-Trp + Acid 112]	0.028	–
CN1C(=O)[C@H](CNC(=O)c2ccc(Cl)s2)NC(=O)[C@@H]2CN(CCO2)C(=O)CCSSCCNC(=O)[C@@H]1Cc1c[nH]c2ccccc12 [X-Cop-Dap-NMe-Trp + Acid 14]	0.028	–
O=C(/C=C/c1ccc2ccccc2c1)NC[C@H]1NC(=O)[C@@H]2CN(CCO2)C(=O)CCSSCCNC(=O)[C@H](Cc2ccc3ccccc3c2)NC1=O [X-Cop-D-Dap-2-Nal + Acid 112]	0.021	–
O=C(/C=C/c1ccc2ccccc2c1)NC[C@@H]1NC(=O)[C@@H]2CN(CCO2)C(=O)CCSSCCNC(=O)[C@H](Cc2cccc3ccccc23)NC1=O [X-Cop-Dap-1-NaI + Acid 112]	0.021	–
O=C(NC[C@@H]1NC(=O)[C@H]2CCCN(C2)C(=O)CCSSCCNC(=O)[C@H](Cc2ccc3ccccc3c2)NC1=O)c1cnc2ccccc2n1 [X-Nip-Dap-2-Nal + Acid 130]	–	0.0035
O=C1CCSSCCNC(=O)[C@H](Cc2cccc3ccccc23)NC(=O)[C@H](CNC(=O)C2COc3ccccc3O2)NC(=O)C2(CC2)CN1 (stereo partly drawn) [X-Amcp-Dap-1-NaI + Acid 115]	0.00133	–
Cn1cc(C[C@@H]2NC(=O)[C@H](CNC(=O)c3ccc4ccccc4c3)NC(=O)[C@H]3CCCN(C3)C(=O)CCSSCCNC2=O)c2ccccc21 [X-Nip-Dap-Me-Trp + Acid 107]	0.076	–
Cn1cc(C[C@@H]2NC(=O)[C@@H](CNC(=O)c3ccc4ccccc4c3)NC(=O)[C@@H]3CN(CCO3)C(=O)CCSSCCNC2=O)c2ccccc21 [X-Cop-D-Dap-Me-Trp + Acid 107]	0.050	–

SMILES	fraction of fluorescent probe displaced [1]	fraction of fluorescent probe displaced [2]
CC(Oc1cccc(Cl)c1)C(=O)NC[C@@H]1NC(=O)[C@@H]2CN(CCO2)C(=O)CCSSCCNC(=O)[C@H](Cc2c[nH]c3ccccc23)NC1=O (stereo partly drawn) [X-Cop-Dap-Trp + Acid 113]	-0.00533	–
O=C(/C=C/c1cccc(Cl)c1)NC[C@@H]1NC(=O)[C@H]2CCCN(C2)C(=O)CCSSCCNC(=O)[C@H](Cc2c[nH]c3cc(Cl)ccc23)NC1=O [X-Nip-Dap-Cl-Trp + Acid 121]	–	0.207
O=C(/C=C/c1ccc(Cl)c(Cl)c1)NC[C@@H]1NC(=O)[C@H]2CCCN(C2)C(=O)CCSSCCNC(=O)[C@H](Cc2ccc3ccccc3c2)NC1=O [X-Nip-Dap-2-Nal + Acid 119]	–	0.020
O=C(CCS(=O)(=O)c1ccccc1)NCCN1CC(=O)N[C@@H](Cc2c[nH]c3ccccc23)C(=O)NCCSSCCC(=O)NCC2(CC2)C1=O [X-Amcp-N-Aeg-Trp + Acid 114]	0.021	–
O=C(CCS(=O)(=O)c1ccccc1)NC[C@H]1NC(=O)C2(CC2)CNC(=O)CCSSCCNC(=O)[C@H](Cc2ccc3ccccc3c2)NC1=O [X-Amcp-D-Dap-2-Nal + Acid 114]	-0.00533	–
CN1C(=O)[C@@H](CNC(=O)c2ccc3ccccc3c2)NC(=O)[C@H]2CCCN(C2)C(=O)CCSSCCNC(=O)[C@@H]1Cc1c[nH]c2ccccc12 [X-Nip-D-Dap-NMe-Trp + Acid 107]	0.031	–
Cn1cc(C[C@@H]2NC(=O)CN(CCNC(=O)CCS(=O)(=O)c3ccccc3)C(=O)[C@@H]3CN(CCO3)C(=O)CCSSCCNC2=O)c2ccccc21 [X-Cop-N-Aeg-Me-Trp + Acid 114]	-0.012	–
O=C(CCS(=O)(=O)c1ccccc1)NC[C@H]1NC(=O)[C@H]2CCCN(C2)C(=O)CCSSCCNC(=O)[C@H](Cc2cccc3ccccc23)NC1=O [X-Nip-D-Dap-1-NaI + Acid 114]	-0.00533	–
O=C(C=Cc1ccc(Cl)cc1)NCC1NC(=O)C2CN(CCO2)C(=O)CCSSCCNC(=O)C(Cc2c[nH]c3cc(Cl)ccc23)NC1=O (stereo not drawn) [X-Cop-Dap-Cl-Trp + Acid 108]	0.075	–
O=C1CN(CCNC(=O)c2ccc(Cl)s2)C(=O)[C@@H]2CN(CCO2)C(=O)CCSSCCNC(=O)[C@H](Cc2c[nH]c3cc(Cl)ccc23)N1 [X-Cop-N-Aeg-Cl-Trp + Acid 14]	-0.00533	–
O=C(CCS(=O)(=O)c1ccccc1)NCCN1CC(=O)N[C@@H](Cc2c[nH]c3cc(Cl)ccc23)C(=O)NCCSSCCC(=O)NCC2(CC2)C1=O [X-Amcp-N-Aeg-Cl-Trp + Acid 114]	-0.00533	–
O=C(NC[C@H]1NC(=O)[C@@H]2CN(CCO2)C(=O)CCSSCCNC(=O)[C@H](Cc2c[nH]c3ccccc23)NC1=O)c1ccc(Cl)cc1 [X-Cop-D-Dap-Trp + Acid 25]	0.00133	–
O=C(NC[C@@H]1NC(=O)[C@H]2CCCN(C2)C(=O)CCSSCCNC(=O)[C@H](Cc2c[nH]c3cc(Cl)ccc23)NC1=O)c1cnc2ccccc2n1 [X-Nip-Dap-Cl-Trp + Acid 130]	–	0.044
O=C(/C=C/c1ccc(F)cc1)NC[C@@H]1NC(=O)[C@H]2CCCN(C2)C(=O)CCSSCCNC(=O)[C@H](Cc2c[nH]c3ccccc23)NC1=O [X-Nip-Dap-Trp + Acid 116]	–	0.443
O=C(NC[C@@H]1NC(=O)[C@H]2CCCN(C2)C(=O)CCSSCCNC(=O)[C@H](Cc2c[nH]c3cc(Cl)ccc23)NC1=O)c1ccc2ccccc2c1 [X-Nip-Dap-Cl-Trp + Acid 107]	0.232	–
O=C(/C=C/c1ccc(OCc2ccccc2)cc1)NCCN1CC(=O)N[C@@H](Cc2ccc3ccccc3c2)C(=O)NCCSSCCC(=O)NCC2(CC2)C1=O [X-Amcp-N-Aeg-2-Nal + Acid 110]	0.021	–
CC(Oc1cccc(Cl)c1)C(=O)NCCN1CC(=O)NC(Cc2c[nH]c3cc(Cl)ccc23)C(=O)NCCSSCCC(=O)NCC2(CC2)C1=O (mixture of isomers) [X-Amcp-N-Aeg-Cl-Trp + Acid 113]	-0.019	–
O=C(CCS(=O)(=O)c1ccccc1)NC[C@H]1NC(=O)[C@H]2CCCN(C2)C(=O)CCSSCCNC(=O)[C@H](Cc2ccc3ccccc3c2)NC1=O [X-Nip-D-Dap-2-Nal + Acid 114]	0.048	–
O=C(NC[C@H]1NC(=O)[C@H]2CCCN(C2)C(=O)CCSSCCNC(=O)[C@H](Cc2ccc3ccccc3c2)NC1=O)c1cccc(Oc2ccccc2)c1 [X-Nip-D-Dap-2-Nal + Acid 111]	0.00133	–
Cn1cc(C[C@@H]2NC(=O)[C@@H](CNC(=O)CCS(=O)(=O)c3ccccc3)NC(=O)[C@H]3CCCN(C3)C(=O)CCSSCCNC2=O)c2ccccc21 [X-Nip-D-Dap-Me-Trp + Acid 114]	0.015	–
O=C1CCSSCCNC(=O)[C@H](Cc2c[nH]c3ccccc23)NC(=O)[C@H](CNC(=O)c2ccc(Cl)cc2)NC(=O)C2(CC2)CN1 [X-Amcp-Dap-Trp + Acid 25]	0.048	–
